From PMC11768184, “Non-Steroidal Anti-Inflammatory Drugs Are Inhibitors of the Intestinal Proton-Coupled Amino Acid Transporter (PAT1): Ibuprofen and Diclofenac Are Non-Translocated Inhibitors” (Pharmaceutics, 2025)
One block for each compound: values may come before it.

What was measured:
Format in all cases: cell-based
[1] = biological target: T1, proton-coupled amino acid transporter (hPAT1) (Homo sapiens, UniProt Q7Z2H8); experiment: concentration-dependent inhibition of [3H]-proline uptake in Caco-2 cells, pH […]
T1 construct: gene SLC36A1

[2] = biological target: T1, proton-coupled amino acid transporter (hPAT1); experiment: TEVC in hPAT1-expressing Xenopus oocytes; [3H]-proline uptake inhibition and kinetics in Caco-2 cells, pH […]
[3] = biological target: T1, proton-coupled amino acid transporter (hPAT1); experiment: TEVC in hPAT1-expressing Xenopus oocytes; [3H]-proline uptake inhibition in Caco-2 cells, pH […]

T1 sequence (Q7Z2H8 whole entry): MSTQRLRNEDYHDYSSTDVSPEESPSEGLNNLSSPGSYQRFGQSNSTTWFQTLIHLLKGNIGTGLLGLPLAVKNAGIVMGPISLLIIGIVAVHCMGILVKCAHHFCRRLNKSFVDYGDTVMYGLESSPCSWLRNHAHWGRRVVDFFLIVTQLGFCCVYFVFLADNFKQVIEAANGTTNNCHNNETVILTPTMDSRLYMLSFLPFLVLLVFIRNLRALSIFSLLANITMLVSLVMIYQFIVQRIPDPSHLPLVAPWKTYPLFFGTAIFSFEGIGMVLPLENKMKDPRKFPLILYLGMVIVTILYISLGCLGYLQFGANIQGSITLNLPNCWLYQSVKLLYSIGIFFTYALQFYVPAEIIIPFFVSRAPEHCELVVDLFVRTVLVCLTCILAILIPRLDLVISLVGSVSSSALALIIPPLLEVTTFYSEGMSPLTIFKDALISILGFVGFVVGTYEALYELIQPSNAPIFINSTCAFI

SMILES: CC(C(=O)O)c1ccc(-c2ccccc2)c(F)c1 (racemic) [flurbiprofen]
IC50 [1]: 280 µM

SMILES: CC(C)Cc1ccc(C(C)C(=O)O)cc1 (racemic) [ibuprofen]
IC50 [2]: 954 µM

IC50 [3]: 272 µM
SMILES: O=C(O)Cc1ccccc1Nc1c(Cl)cccc1Cl [diclofenac]
